What is called Dmax is the largest share of the target that was removed. A higher Dmax goes with a fuller loss of target. As usually defined, the DC50 is the midpoint of the concentration-degradation curve. Lower therefore signals a more potent degrader.

SMILES strings stand for the structures. Bounds are passed on as bounds.

In patent US20250206732A1, “COMPOUNDS AND METHODS FOR THE TARGETED DEGRADATION OF KRAS” (Arvinas Operations, Inc., priority 2022, published 2025) one finds Dmax and DC50 data, which are given here for twelve compounds.

In the assay the target is T1, AsPC-1 HiBiT-KRASG12D (Homo sapiens, UniProt P01116, G12D).
T1 construct: insert the HiBiT tag onto the N-terminus of one or more of the endogenous KRAS alleles; endogenous in cells; host or cells: AsPC-1 (ATCC CRL-1682), CRISPR-Cas9 knock-in clone, one tagged allele
T1 sequence (P01116 1-188 isoform P01116-2 G12D): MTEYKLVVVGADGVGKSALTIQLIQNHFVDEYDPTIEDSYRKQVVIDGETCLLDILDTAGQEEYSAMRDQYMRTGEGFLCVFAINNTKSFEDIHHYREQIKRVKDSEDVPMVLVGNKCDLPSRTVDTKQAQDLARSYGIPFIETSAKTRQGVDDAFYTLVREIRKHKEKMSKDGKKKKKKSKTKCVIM
In words: HiBiT degradation assay (G12D), AsPC-1 HiBiT-KRASG12D cells. The assay is classed as cell-based. The following applies: 24 hours treatment; for Dmax: ASPC1, AsPC-1 HiBiT-KRASG12D cells, maximum degradation observed; for DC50: AsPC-1 HiBiT-KRASG12D cells, HiBiT luminescence. In short, it runs like this:
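HiBiT-KRAS abundance was read as Nano-Glo HiBiT lytic luminescence (45 min, room temperature) after a PBS wash. Before that, a 4 h alamar blue fluorescence read, normalized to DMSO, monitored viability. Treatment lasted 24 hours at 37 °C, in triplicate, using AsPC-1 cells with endogenous N-terminally HiBiT-tagged KRAS G12D.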
On the technique in general: With HiBiT, luminescence reflects the tagged protein that the partner subunit can reach.

`C#Cc1c(F)ccc2cc(O)cc(-c3ncc4c(N5CC6CCC(C5)N6)nc(OCCN5CCC6(CC5)CC(Oc5cc([C@@H](C(=O)N7C[C@H](O)C[C@H]7C(=O)N[C@@H](C)c7ccc(-c8scnc8C)cc7)C(C)C)on5)C6)nc4c3F)c12` [Compound 159, (2S,4R)-1-[(2S)-2-{3-[(7-{2-[(4-{3,8-diazabicyclo[3.2.1]octan-3-yl}-7-(8-ethynyl-7-fluoro-3-hydroxynaphthalen-1-yl)-8-fluoropyrido[4,3-d]pyrimidin-2-yl)oxy]ethyl}-7-azaspiro[3.5]nonan-2-yl)oxy]-1,2-oxazol-5-yl}-3-methylbutanoyl]-4-hydroxy-N-[(1S)-1-[4-(4-methyl-1,3-thiazol-5-yl)phenyl]ethyl]pyrrolidine-2-carboxamide]: the maximal degradation (Dmax) is 60 to 80% and the DC50 was less than 600 nM.

With `C#Cc1c(F)ccc2cc(O)cc(-c3ncc4c(N5CC6CCC(C5)N6)nc(OCCN5CCC(CC6CN(c7cc([C@@H](C(=O)N8C[C@H](O)C[C@H]8C(=O)N[C@@H](C)c8ccc(-c9ccnn9C)cc8)C(C)C)on7)C6)CC5)nc4c3F)c12` [Compound 160, (2S,4R)-1-[(2S)-2-(3-{3-[(1-{2-[(4-{3,8-diazabicyclo[3.2.1]octan-3-yl}-7-(8-ethynyl-7-fluoro-3-hydroxynaphthalen-1-yl)-8-fluoropyrido[4,3-d]pyrimidin-2-yl)oxy]ethyl}piperidin-4-yl)methyl]azetidin-1-yl}-1,2-oxazol-5-yl)-3-methylbutanoyl]-4-hydroxy-N-[(1S)-1-[4-(1-methyl-1H-pyrazol-5-yl)phenyl]ethyl]pyrrolidine-2-carboxamide], the Dmax is 20 to 60% and the half-maximal degradation concentration (DC50) is more than 3000 nM.

`C#Cc1c(F)ccc2cc(O)cc(-c3ncc4c(N5CC6CCC(C5)N6)nc(OCCN5CCC6(CC5)CC(Oc5cc([C@H](C(=O)N7C[C@H](O)C[C@H]7C(=O)N[C@@H](C)c7ccc(-c8scnc8C)cc7)C(C)C)on5)C6)nc4c3F)c12` [Compound 161, (2S,4R)-1-[(2R)-2-{3-[(7-{2-[(4-{3,8-diazabicyclo[3.2.1]octan-3-yl}-7-(8-ethynyl-7-fluoro-3-hydroxynaphthalen-1-yl)-8-fluoropyrido[4,3-d]pyrimidin-2-yl)oxy]ethyl}-7-azaspiro[3.5]nonan-2-yl)oxy]-1,2-oxazol-5-yl}-3-methylbutanoyl]-4-hydroxy-N-[(1S)-1-[4-(4-methyl-1,3-thiazol-5-yl)phenyl]ethyl]pyrrolidine-2-carboxamide] registered a Dmax of 80 to 100% and a DC50 of less than 600 nM.

`CCc1cccc2cc(O)cc(-c3ncc4c(N5CC6CCC(C5)N6)nc(OC[C@H]5CN(CC6CN(c7cc([C@H](C(=O)N8C[C@H](O)C[C@H]8C(=O)N[C@@H](C)c8ccc(-c9scnc9C)cc8)C(C)C)on7)C6)CCN5C)nc4c3F)c12` [Compound 162, (2S,4R)-1-[(2R)-2-[3-(3-{[(3R)-3-{[(4-{3,8-diazabicyclo[3.2.1]octan-3-yl}-7-(8-ethyl-3-hydroxynaphthalen-1-yl)-8-fluoropyrido[4,3-d]pyrimidin-2-yl)oxy]methyl}-4-methylpiperazin-1-yl]methyl}azetidin-1-yl)-1,2-oxazol-5-yl]-3-methylbutanoyl]-4-hydroxy-N-[(1S)-1-[4-(4-methyl-1,3-thiazol-5-yl)phenyl]ethyl]pyrrolidine-2-carboxamide] showed a Dmax of 20 to 60% and a DC50 of less than 600 nM.

The compound `CCc1cccc2cc(O)cc(-c3ncc4c(N5CC6CCC(C5)N6)nc(OC[C@@H]5CN(CC6CN(c7cc([C@H](C(=O)N8C[C@H](O)C[C@H]8C(=O)N[C@@H](C)c8ccc(-c9scnc9C)cc8)C(C)C)on7)C6)CCN5C)nc4c3F)c12` [Compound 163, (2S,4R)-1-[(2R)-2-[3-(3-{[(3S)-3-{[(4-{3,8-diazabicyclo[3.2.1]octan-3-yl}-7-(8-ethyl-3-hydroxynaphthalen-1-yl)-8-fluoropyrido[4,3-d]pyrimidin-2-yl)oxy]methyl}-4-methylpiperazin-1-yl]methyl}azetidin-1-yl)-1,2-oxazol-5-yl]-3-methylbutanoyl]-4-hydroxy-N-[(1S)-1-[4-(4-methyl-1,3-thiazol-5-yl)phenyl]ethyl]pyrrolidine-2-carboxamide] registered a Dmax of 60 to 80% and a DC50 of less than 600 nM.

Compound `CCc1cccc2cc(O)cc(-c3ncc4c(N5CC6CCC(C5)N6)nc(OC[C@@H]5CN(CC6CN(c7cc([C@@H](C(=O)N8C[C@H](O)C[C@H]8C(=O)N[C@@H](C)c8ccc(-c9scnc9C)cc8)C(C)C)on7)C6)CCN5C)nc4c3F)c12` [Compound 164, (2S,4R)-1-[(2S)-2-[3-(3-{[(3S)-3-{[(4-{3,8-diazabicyclo[3.2.1]octan-3-yl}-7-(8-ethyl-3-hydroxynaphthalen-1-yl)-8-fluoropyrido[4,3-d]pyrimidin-2-yl)oxy]methyl}-4-methylpiperazin-1-yl]methyl}azetidin-1-yl)-1,2-oxazol-5-yl]-3-methylbutanoyl]-4-hydroxy-N-[(1S)-1-[4-(4-methyl-1,3-thiazol-5-yl)phenyl]ethyl]pyrrolidine-2-carboxamide] displayed a Dmax of 20 to 60% and a DC50 of more than 3000 nM.

The compound `CCc1cccc2cc(O)cc(-c3ncc4c(N5CC6CCC(C5)N6)nc(N5CC(N6CCC(CC7CN(c8cc([C@H](C(=O)N9C[C@H](O)C[C@H]9C(=O)N[C@@H](C)c9ccc(-c%10scnc%10C)cc9)C(C)C)on8)C7)CC6)C5)nc4c3F)c12` [Compound 165] had a Dmax of 20 to 60% and a DC50 of less than 600 nM.

The compound `CCc1cccc2cc(O)cc(-c3ncc4c(N5CC6CCC(C5)N6)nc(OC5CCN(CC6CCN(c7cc([C@H](C(=O)N8C[C@H](O)C[C@H]8C(=O)N[C@@H](C)c8ccc(-c9scnc9C)cc8)C(C)C)on7)CC6)CC5)nc4c3F)c12` [Compound 166, (2S,4R)-1-[(2R)-2-{3-[4-({4-[(4-{3,8-diazabicyclo[3.2.1]octan-3-yl}-7-(8-ethyl-3-hydroxynaphthalen-1-yl)-8-fluoropyrido[4,3-d]pyrimidin-2-yl)oxy]piperidin-1-yl}methyl)piperidin-1-yl]-1,2-oxazol-5-yl}-3-methylbutanoyl]-4-hydroxy-N-[(1S)-1-[4-(4-methyl-1,3-thiazol-5-yl)phenyl]ethyl]pyrrolidine-2-carboxamide] had a Dmax of 20 to 60% and a DC50 of less than 600 nM.

For `CCc1cccc2cc(O)cc(-c3ncc4c(N5CC6CCC(C5)N6)nc(OC5CCN(CC6CCN(c7cc([C@@H](C(=O)N8C[C@H](O)C[C@H]8C(=O)N[C@@H](C)c8ccc(-c9scnc9C)cc8)C(C)C)on7)CC6)CC5)nc4c3F)c12` [Compound 167, (2S,4R)-1-[(2S)-2-{3-[4-({4-[(4-{3,8-diazabicyclo[3.2.1]octan-3-yl}-7-(8-ethyl-3-hydroxynaphthalen-1-yl)-8-fluoropyrido[4,3-d]pyrimidin-2-yl)oxy]piperidin-1-yl}methyl)piperidin-1-yl]-1,2-oxazol-5-yl}-3-methylbutanoyl]-4-hydroxy-N-[(1S)-1-[4-(4-methyl-1,3-thiazol-5-yl)phenyl]ethyl]pyrrolidine-2-carboxamide], the Dmax is 20 to 60% and the DC50 fell in the range of 1000 to 3000 nM.

For `C#Cc1c(F)ccc2cc(O)cc(-c3ncc4c(N5CC6CCC(C5)N6)nc(OCCN5CCC(CC6CCN(c7cc([C@H](C(=O)N8C[C@H](O)C[C@H]8C(=O)N[C@@H](C)c8ccc(-c9ccnn9C)cc8)C(C)C)on7)CC6)CC5)nc4c3F)c12` [Compound 168, (2S,4R)-1-[(2R)-2-(3-{4-[(1-{2-[(4-{3,8-diazabicyclo[3.2.1]octan-3-yl}-7-(8-ethynyl-7-fluoro-3-hydroxynaphthalen-1-yl)-8-fluoropyrido[4,3-d]pyrimidin-2-yl)oxy]ethyl}piperidin-4-yl)methyl]piperidin-1-yl}-1,2-oxazol-5-yl)-3-methylbutanoyl]-4-hydroxy-N-[(1S)-1-[4-(1-methyl-1H-pyrazol-5-yl)phenyl]ethyl]pyrrolidine-2-carboxamide], the maximal degradation (Dmax) lay in the range of 80 to 100% and the half-maximal degradation concentration (DC50) was less than 600 nM.

As for `C#Cc1c(F)ccc2cc(O)cc(-c3ncc4c(N5CC6CCC(C5)N6)nc(OCCN5CCC(CC6CCN(c7cc([C@@H](C(=O)N8C[C@H](O)C[C@H]8C(=O)N[C@@H](C)c8ccc(-c9ccnn9C)cc8)C(C)C)on7)CC6)CC5)nc4c3F)c12` [Compound 169, (2S,4R)-1-[(2S)-2-(3-{4-[(1-{2-[(4-{3,8-diazabicyclo[3.2.1]octan-3-yl}-7-(8-ethynyl-7-fluoro-3-hydroxynaphthalen-1-yl)-8-fluoropyrido[4,3-d]pyrimidin-2-yl)oxy]ethyl}piperidin-4-yl)methyl]piperidin-1-yl}-1,2-oxazol-5-yl)-3-methylbutanoyl]-4-hydroxy-N-[(1S)-1-[4-(1-methyl-1H-pyrazol-5-yl)phenyl]ethyl]pyrrolidine-2-carboxamide], the greatest degradation seen (Dmax) was in the range of 20 to 60% and the DC50 is 600 to 1000 nM.

`C#Cc1c(F)ccc2cc(O)cc(-c3ncc4c(N5CC6CCC(C5)N6)nc(OCCN5CCC(CN6CCN(c7cc([C@@H](C(=O)N8C[C@H](O)C[C@H]8C(=O)N[C@@H](C)c8ccc(-c9ccnn9C)cc8)C(C)C)on7)CC6)CC5)nc4c3F)c12` [Compound 170, (2S,4R)-1-[(2S)-2-(3-{4-[(1-{2-[(4-{3,8-diazabicyclo[3.2.1]octan-3-yl}-7-(8-ethynyl-7-fluoro-3-hydroxynaphthalen-1-yl)-8-fluoropyrido[4,3-d]pyrimidin-2-yl)oxy]ethyl}piperidin-4-yl)methyl]piperazin-1-yl}-1,2-oxazol-5-yl)-3-methylbutanoyl]-4-hydroxy-N-[(1S)-1-[4-(1-methyl-1H-pyrazol-5-yl)phenyl]ethyl]pyrrolidine-2-carboxamide]: the Dmax is 20 to 60% and the DC50 lay within 1000 to 3000 nM.
